# Data as given in US20230250106A1, “COMPOUNDS AND COMPOSITIONS FOR TREATING CONDITIONS ASSOCIATED WITH STING ACTIVITY” (IFM Due, Inc., priority 2020, published 2023).
# Tested on: STING pathway
# Assay: STING reporter assay: luciferase reporter activity in THP1-Dual KO-IFNAR2 cells activated with 2'3'cGAMP
# Format: cell-based
# Conditions: Homo sapiens, 2'3'cGAMP 15 μM, 24 h, read-out: hSTING EC50
# Protocol: STING pathway activation by the compounds described herein was measured using THP1-Dual™ cells (KO-IFNAR2).
# THP1-Dual™ KO-IFNAR2 Cells (obtained from invivogen) were maintained in RPMI, 10% FCS, 5 ml P/S, 2 mM L-glut, 10 mM Hepes, and 1 mM sodium pyruvate. Compounds were spotted in empty 384 well tissue culture plates (Greiner 781182) by Echo for a final concentration of 0.0017-100 μM. Cells were plated into the TC plates at 40 μL per well, 2×10E6 cells/mL. For activation with STING ligand, 2′3′cGAMP (MW 718.38, obtained from Invivogen), was prepared in Optimem media.
# The following solutions were prepared for each 1×384 plate: • Solution A: 2 mL Optimem with one of the following stimuli: • 60 μL of 10 mM 2′3′cGAMP→150 μM stock • Solution B: 2 mL Optimem with 60 μL Lipofectamine 2000→Incubate 5 min at RT
# 2 mL of solution A and 2 ml Solution B was mixed and incubated for 20 min at room temperature (RT). 20 μL of transfection solution (A+B) was added on top of the plated cells, with a final 2′3′cGAMP concentration of 15 μM. The plates were then centrifuged immediately at 340 g for 1 minute, after which they were incubated at 37° C., 5% CO2,>98% humidity for 24 h. Luciferase reporter activity was then measured. EC50 values were calculated by using standard methods known in the art.
# Luciferase reporter assay: 10 μL of supernatant from the assay was transferred to white 384-plate with flat bottom and squared wells. One pouch of QUANTI-Luc™ Plus was dissolved in 25 mL of water. 100 μL of QLC Stabilizer per 25 mL of QUANTI-Luc™ Plus solution was added. 50 μL of QUANTI-Luc™ Plus/QLC solution per well was then added. Luminescence was measured on a Platereader (e.g., Spectramax I3X (Molecular Devices GF3637001)).
# Luciferase reporter activity was then measured. EC50 values were calculated by using standard methods known in the art.
row,EC50 [µM],Compound
1,0.2 to 1,"C[C@@H](c1ccc(C(=O)Nc2c[nH]c3cc(F)c(F)cc23)cc1F)N1CC(F)(F)C1 (single isomer, unassigned) [Compound 244, (R or S)—N-(5,6-difluoro-1H-indol-3-yl)-4-(1-(3,3-difluoroazetidin-1-yl)-1l3-ethyl)-3-fluorobenzamide]"
2,0.2 to 1,"C[C@H](c1ccc(C(=O)Nc2c[nH]c3cc(F)c(F)cc23)cc1F)N1CC(F)(F)C1 (single isomer, unassigned) [Compound 245, (R or S)—N-(5,6-difluoro-1H-indol-3-yl)-4-(1-(3,3-difluoroazetidin-1-yl)-1l3-ethyl)-3-fluorobenzamide]"
3,0.2 to 1,"O=C(Nc1c[nH]c2cc(F)c(F)cc12)c1cnc(N2CC3(C2)CC(F)(F)C3)c(Cl)c1 [Compound 101, 5-chloro-N-(5,6-difluoro-1H-indol-3-yl)-6-(6,6-difluoro-2-azaspiro[3.3]heptan-2-yl)nicotinamide]"
4,0.2 to 1,"CC(C)n1cc(-c2ccc3[nH]cc(NC(=O)c4cnc(N5CCC(F)(F)CC5)c(Cl)c4)c3c2)cn1 [Compound 102, 5-chloro-6-(4,4-difluoropiperidin-1-yl)-N-(5-(1-isopropyl-1H-pyrazol-4-yl)-1H-indol-3-yl)nicotinamide]"
5,5 to 100,"COCCCNc1ncc(C(=O)Nc2c[nH]c3cc(F)c(F)cc23)cc1C [Compound 103, N-(5,6-difluoro-1H-indol-3-yl)-6-((3-methoxypropyl)amino)-5-methylnicotinamide]"
6,0.2 to 1,"O=C(Nc1c[nH]c2cc(F)c(F)cc12)c1cc(Cc2ccc(C(F)(F)F)cc2)c(=O)[nH]n1 [Compound 105, N-(5,6-difluoro-1H-indol-3-yl)-6-oxo-5-(4-(trifluoromethyl)benzyl)-1,6-dihydropyridazine-3-carboxamide]"
7,0.2 to 1,"O=C(Nc1c[nH]c2cc(F)c(F)cc12)c1ccnc(OC(F)F)c1 [Compound 106, N-(5,6-difluoro-1H-indol-3-yl)-2-(difluoromethoxy)pyridine-4-carboxamide]"
8,0.2 to 1,"N#Cc1cc(C(=O)Nc2c[nH]c3cc(F)c(F)cc23)cnc1N1CCC(F)(F)CC1 [Compound 107, 5-cyano-N-(5,6-difluoro-1H-indol-3-yl)-6-(4,4-difluoropiperidin-1-yl)nicotinamide]"
9,0.2 to 1,"O=C(Nc1c[nH]c2cc(F)c(F)cc12)c1ccc(C2CC(F)(F)C2)cc1 [Compound 108, N-(5,6-difluoro-1H-indol-3-yl)-4-(3,3-difluorocyclobutyl)benzamide]"
10,0.04 to 0.2,"O=C(Nc1c[nH]c2cc(F)c(F)cc12)c1ccc(CCOC(F)(F)F)cc1 [Compound 110, N-(5,6-difluoro-1H-indol-3-yl)-4-(2-(trifluoromethoxy)ethyl)benzamide]"
11,0.2 to 1,"COc1cc(C(=O)Nc2c[nH]c3cc(F)c(F)cc23)ccc1C(F)(F)F [Compound 112, N-(5,6-difluoro-1H-indol-3-yl)-3-methoxy-4-(trifluoromethyl)benzamide]"
12,0.2 to 1,"CC(C)Oc1cc(C(=O)Nc2c[nH]c3cc(F)c(F)cc23)ccn1 [Compound 113, N-(5,6-difluoro-1H-indol-3-yl)-2-(propan-2-yloxy)pyridine-4-carboxamide]"
13,0.2 to 1,"O=C(Nc1c[nH]c2cc(F)c(F)cc12)c1ccc(OC(F)(F)F)c(Cl)c1 [Compound 114, 3-chloro-N-(5,6-difluoro-1H-indol-3-yl)-4-(trifluoromethoxy)benzamide]"
14,0.2 to 1,"O=C(Nc1c[nH]c2cc(F)c(F)cc12)c1cc(F)c(OCC(F)(F)F)c(F)c1 [Compound 115, N-(5,6-difluoro-1H-indol-3-yl)-3,5-difluoro-4-(2,2,2-trifluoroethoxy)benzamide]"
15,0.2 to 1,"O=C(Nc1c[nH]c2cc(F)c(F)cc12)c1ccc(OC(F)F)cc1 [Compound 116, N-(5,6-difluoro-1H-indol-3-yl)-4-(difluoromethoxy)benzamide]"
16,0.2 to 1,"O=C(Nc1c[nH]c2cc(F)c(F)cc12)c1cccc(OC(F)(F)C(F)F)c1 [Compound 117, N-(5,6-difluoro-1H-indol-3-yl)-3-(1,1,2,2-tetrafluoroethoxy)benzamide]"
17,0.2 to 1,"O=C(Nc1c[nH]c2cc(F)c(F)cc12)c1ccc(Oc2cccnc2)cc1 [Compound 118, N-(5,6-difluoro-1H-indol-3-yl)-4-(pyridin-3-yloxy)benzamide]"

row,EC50 [µM],Compound
1,0.2 to 1,"Cc1cc(OC(F)(F)F)cc(C(=O)Nc2c[nH]c3cc(F)c(F)cc23)c1 [Compound 119, N-(5,6-difluoro-1H-indol-3-yl)-3-methyl-5-(trifluoromethoxy)benzamide]"
2,0.2 to 1,"CC(C)Oc1ccc(C(=O)Nc2c[nH]c3cc(F)c(F)cc23)cc1C#N [Compound 120, 3-cyano-N-(5,6-difluoro-1H-indol-3-yl)-4-(propan-2-yloxy)benzamide]"
3,1 to 5,"O=C(Nc1c[nH]c2cc(F)c(F)cc12)c1cccc(OC(F)F)c1 [Compound 121, N-(5,6-difluoro-1H-indol-3-yl)-3-(difluoromethoxy)benzamide]"
4,0.2 to 1,"O=C(Nc1c[nH]c2cc(F)c(F)cc12)c1ccc(OCC(F)(F)F)cc1Cl [Compound 122, 2-chloro-N-(5,6-difluoro-1H-indol-3-yl)-4-(2,2,2-trifluoroethoxy)benzamide]"
5,1 to 5,"O=C(NCc1ccc(C(=O)Nc2c[nH]c3cc(F)c(F)cc23)cc1)OCc1cccnc1 [Compound 123, (pyridin-3-yl)methyl N-({4-[(5,6-difluoro-1H-indol-3-yl)carbamoyl]phenyl}methyl)carbamate]"
6,5 to 100,"O=C(Nc1c[nH]c2cc(F)c(F)cc12)c1cccc(OC2CCOCC2)n1 [Compound 124, N-(5,6-difluoro-1H-indol-3-yl)-6-(oxan-4-yloxy)pyridine-2-carboxamide]"
7,0.2 to 1,"O=C(Nc1c[nH]c2cc(F)c(F)cc12)c1cccc(OC(F)(F)F)c1 [Compound 125, N-(5,6-difluoro-1H-indol-3-yl)-3-(trifluoromethoxy)benzamide]"
8,0.2 to 1,"CC(C)Oc1ccc(C(=O)Nc2c[nH]c3cc(F)c(F)cc23)cc1C(F)(F)F [Compound 126, N-(5,6-difluoro-1H-indol-3-yl)-4-(propan-2-yloxy)-3-(trifluoromethyl)benzamide]"
9,0.2 to 1,"O=C(Nc1c[nH]c2cc(F)c(F)cc12)c1ccc(OC(F)F)c(OCC2CC2)c1 [Compound 127, 3-(cyclopropylmethoxy)-N-(5,6-difluoro-1H-indol-3-yl)-4-(difluoromethoxy)benzamide]"
10,0.2 to 1,"CC(C)Oc1ccc(C(=O)Nc2c[nH]c3cc(F)c(F)cc23)cc1 [Compound 128, N-(5,6-difluoro-1H-indol-3-yl)-4-isopropoxybenzamide]"
11,1 to 5,"O=C(Nc1c[nH]c2cc(F)c(F)cc12)c1ccc(OCCN2CCCCC2)cc1 [Compound 129, N-(5,6-difluoro-1H-indol-3-yl)-4-[2-(piperidin-1-yl)ethoxy]benzamide]"
12,0.2 to 1,"O=C(Nc1c[nH]c2cc(F)c(F)cc12)c1ccc(OCC2CC2)cc1 [Compound 130, 4-(cyclopropylmethoxy)-N-(5,6-difluoro-1H-indol-3-yl)benzamide]"
13,1 to 5,"O=C(Nc1c[nH]c2cc(F)c(F)cc12)c1cccc(OCc2ccccc2)c1 [Compound 131, 3-(benzyloxy)-N-(5,6-difluoro-1H-indol-3-yl)benzamide]"
14,0.2 to 1,"O=C(Nc1c[nH]c2cc(F)c(F)cc12)c1ccc(Oc2ccc(C(F)(F)F)cn2)cc1 [Compound 133, N-(5,6-difluoro-1H-indol-3-yl)-4-{[5-(trifluoromethyl)pyridin-2-yl]oxy}benzamide]"
15,0.2 to 1,"O=C(Nc1c[nH]c2cc(F)c(F)cc12)c1ccc(OCC(F)(F)F)c(F)c1 [Compound 134, N-(5,6-difluoro-1H-indol-3-yl)-3-fluoro-4-(2,2,2-trifluoroethoxy)benzamide]"
16,0.2 to 1,"O=C(Nc1c[nH]c2cc(F)c(F)cc12)c1ccc(OC(F)(F)F)cc1 [Compound 135, N-(5,6-difluoro-1H-indol-3-yl)-4-(trifluoromethoxy)benzamide]"

row,Compound,EC50 [µM]
1,"N#Cc1ccc2c(NC(=O)c3ccc(OCCCC(F)(F)F)c(F)c3)c[nH]c2c1 [Compound 104, N-(6-cyano-1H-indol-3-yl)-3-fluoro-4-(4,4,4-trifluorobutoxy)benzamide]",1 to 5
2,"O=C(Nc1c[nH]c2cc(F)c(F)cc12)c1ccc(OC2CC(F)(F)C2)cc1 [Compound 109, N-(5,6-difluoro-1H-indol-3-yl)-4-(3,3-difluorocyclobutoxy)benzamide]",0.2 to 1
3,"O=C(Nc1c[nH]c2c(F)cncc12)c1ccc(OCCCC(F)(F)F)c(F)c1 [Compound 111, 3-fluoro-N-(7-fluoro-1H-pyrrolo[3,2-c]pyridin-3-yl)-4-(4,4,4-trifluorobutoxy)benzamide]",1 to 5
4,"CCCCOc1ccc(C(=O)Nc2c[nH]c3cc(F)c(F)cc23)cc1 [Compound 132, 4-butoxy-N-(5,6-difluoro-1H-indol-3-yl)benzamide]",0.2 to 1
